≈ marks a conversion by molar mass, not a printed value.
Key:
Format in all cases: functional
Klebsiella pneumoniae [1] = assay: Antibacterial activity against Klebsiella pneumoniae producing extended spectrum beta lactamase enzyme after 24 hr by CLSI broth microdilution method
Staphylococcus aureus [2] = assay: Antibacterial activity against methicillin-resistant Staphylococcus aureus after 24 hr by CLSI broth microdilution method
Bacillus subtilis [3] = assay: Antibacterial activity against Bacillus subtilis ATCC 6633 after 24 hr by CLSI broth microdilution method
Bacillus subtilis [4] = assay: Antibacterial activity against ceftriaxon-resistant Bacillus subtilis after 24 hr by CLSI broth microdilution method
Klebsiella pneumoniae [5] = assay: Antibacterial activity against Klebsiella pneumoniae RSKK 574 after 24 hr by CLSI broth microdilution method
Candida albicans [6] = assay: Antifungal activity against Candida albicans ATCC 10231 after 48 hr by CLSI broth microdilution method; conditions: ATCC 10231, 48 h
Escherichia coli [7] = assay: Antibacterial activity against Escherichia coli producing extended spectrum beta lactamase enzyme after 24 hr by CLSI broth microdilution method
Escherichia coli [8] = assay: Antibacterial activity against Escherichia coli ATCC 25922 after 24 hr by CLSI broth microdilution method
Pseudomonas aeruginosa [9] = assay: Antibacterial activity against gentamicin-resistant Pseudomonas aeruginosa after 24 hr by CLSI broth microdilution method
Pseudomonas aeruginosa [10] = assay: Antibacterial activity against Pseudomonas aeruginosa ATCC […] after 24 hr by CLSI broth microdilution method
Staphylococcus aureus [11] = assay: Antibacterial activity against Staphylococcus aureus ATCC 25923 after 24 hr by CLSI broth microdilution method
Candida albicans [12] = assay: Antifungal activity against Candida albicans
Staphylococcus aureus [13] = assay: Antibacterial activity against Staphylococcus aureus
Pseudomonas aeruginosa [14] = assay: Ratio of ofloxacin MIC to compound MIC for gentamicin-resistant Pseudomonas aeruginosa
Pseudomonas aeruginosa [15] = assay: Ratio of gentamycin sulfate MIC to compound MIC for gentamicin-resistant Pseudomonas aeruginosa

Compound | MIC (Klebsiella pneumoniae [1]) [µg/mL] | MIC (Staphylococcus aureus [2]) [µg/mL] | MIC (Bacillus subtilis [3]; ATCC 6633, 24 h) [µg/mL] | MIC (Bacillus subtilis [4]) [µg/mL] | MIC (Klebsiella pneumoniae [5]; RSKK 574, 24 h) [µg/mL] | MIC (Candida albicans [6]) [µg/mL] | MIC (Escherichia coli [7]) [µg/mL] | MIC (Escherichia coli [8]; ATCC 25922, 24 h) [µg/mL] | MIC (Pseudomonas aeruginosa [9]) [µg/mL] | MIC (Pseudomonas aeruginosa [10]; ATCC 25853, 24 h) [µg/mL] | MIC (Staphylococcus aureus [11]; ATCC 25923, 24 h) [µg/mL] | MIC (Candida albicans [12]) [µg/mL] | MIC (Staphylococcus aureus [13]) [µg/mL] | MIC (Bacillus subtilis [3]) [µg/mL] | MIC (Klebsiella pneumoniae [5]) [µg/mL] | MIC (Escherichia coli [8]) [µg/mL] | MIC (Pseudomonas aeruginosa [10]) [µg/mL] | MIC (Staphylococcus aureus [11]) [µg/mL] | Ratio (Pseudomonas aeruginosa [14]) | Ratio (Pseudomonas aeruginosa [15])
CC(C)(C)c1ccc(C(=O)Nc2ccc(-c3nc4ccccc4s3)cc2)cc1 | 50 (≈ 129 µM) | 12.5 (≈ 32.3 µM) | 50 (≈ 129 µM) | 100 (≈ 259 µM) | 25 (≈ 64.7 µM) | 12.5 (≈ 32.3 µM) | 50 (≈ 129 µM) | 25 (≈ 64.7 µM) | 25 (≈ 64.7 µM) | 25 (≈ 64.7 µM) | 50 (≈ 129 µM) |  |  |  |  |  |  |  |  | 
OC(Cn1cncn1)(Cn1cncn1)c1ccc(F)cc1F [FLUCONAZOLE] |  |  |  |  |  | 0.78 (≈ 2.55 µM) |  |  |  |  |  |  |  |  |  |  |  |  |  | 
C[C@@H]1[C@H](O)[C@@H](C)/C=C/C=C/C=C/C=C/C=C/C=C/C=C/[C@H](O[C@@H]2O[C@H](C)[C@@H](O)[C@H](N)[C@@H]2O)C[C@@H]2O[C@](O)(C[C@@H](O)C[C@@H](O)[C@H](O)CC[C@@H](O)C[C@@H](O)CC(=O)O[C@H]1C)C[C@H](O)[C@H]2C(=O)O [AMPHOTERICIN B] |  |  |  |  |  | 0.78 (≈ 0.844 µM) |  |  |  |  |  |  |  |  |  |  |  |  |  | 
O=C(Nc1ccc(-c2nc3ccccc3s2)cc1)c1ccc(F)cc1 | 50 (≈ 144 µM) | 25 (≈ 71.8 µM) | 50 (≈ 144 µM) | 50 (≈ 144 µM) | 25 (≈ 71.8 µM) | 25 (≈ 71.8 µM) | 50 (≈ 144 µM) | 50 (≈ 144 µM) | 25 (≈ 71.8 µM) | 25 (≈ 71.8 µM) | 50 (≈ 144 µM) |  |  |  |  |  |  |  |  | 
O=C(Cc1ccc(Br)cc1)Nc1ccc(-c2nc3ccccc3s2)cc1 | 50 (≈ 118 µM) | 25 (≈ 59.1 µM) | 50 (≈ 118 µM) | 50 (≈ 118 µM) | 50 (≈ 118 µM) | 12.5 (≈ 29.5 µM) | 50 (≈ 118 µM) | 25 (≈ 59.1 µM) | 25 (≈ 59.1 µM) | 12.5 (≈ 29.5 µM) | 50 (≈ 118 µM) |  |  |  |  |  |  |  |  | 
O=C(Cc1ccc(F)cc1)Nc1ccc(-c2nc3ccccc3s2)cc1 | 50 (≈ 138 µM) | 50 (≈ 138 µM) | 50 (≈ 138 µM) | 25 (≈ 69 µM) | 50 (≈ 138 µM) | 25 (≈ 69 µM) | 50 (≈ 138 µM) | 25 (≈ 69 µM) | 25 (≈ 69 µM) | 25 (≈ 69 µM) | 100 (≈ 276 µM) |  |  |  |  |  |  |  |  | 
CCc1ccc(C(=O)Nc2ccc(-c3nc4ccccc4s3)cc2)cc1 | 50 (≈ 139 µM) | 6.25 (≈ 17.4 µM) | 50 (≈ 139 µM) | 50 (≈ 139 µM) | 25 (≈ 69.7 µM) | 12.5 (≈ 34.9 µM) | 50 (≈ 139 µM) | 25 (≈ 69.7 µM) | 25 (≈ 69.7 µM) | 25 (≈ 69.7 µM) | 50 (≈ 139 µM) |  |  |  |  |  |  |  |  | 
Clc1ccc(OCc2nc3ccccc3s2)cc1 |  |  |  |  |  |  |  |  |  |  |  | 3.12 (≈ 11.3 µM) |  |  |  |  |  |  |  | 
O=C(Nc1ccc(-c2nc3ccccc3s2)cc1)c1ccc(Br)cc1 | 50 (≈ 122 µM) | 25 (≈ 61.1 µM) | 50 (≈ 122 µM) | 100 (≈ 244 µM) | 50 (≈ 122 µM) | 25 (≈ 61.1 µM) | 50 (≈ 122 µM) | 50 (≈ 122 µM) | 25 (≈ 61.1 µM) | 25 (≈ 61.1 µM) | 50 (≈ 122 µM) |  |  |  |  |  |  |  |  | 
CO[C@H]1/C=C/O[C@@]2(C)Oc3c(C)c(O)c4c(O)c(c(/C=N/N5CCN(C)CC5)c(O)c4c3C2=O)NC(=O)/C(C)=C\C=C\[C@H](C)[C@H](O)[C@@H](C)[C@@H](O)[C@@H](C)[C@H](OC(C)=O)[C@@H]1C [RIFAMPIN] |  | 1.56 (≈ 1.9 µM) | 0.19 (≈ 0.231 µM) | 3.12 (≈ 3.8 µM) |  |  |  |  |  |  | 0.0225 (≈ 0.0273 µM) |  |  |  |  |  |  |  |  | 
c1ccc(CCc2nc3ccccc3s2)cc1 [2-PHENETHYLBENZO[D]THIAZOLE] |  |  |  |  |  |  |  |  |  |  |  | 3.12 (≈ 13 µM) |  |  |  |  |  |  |  | 
c1ccc(OCc2nc3ccccc3s2)cc1 [2-(PHENOXYMETHYL)BENZOTHIAZOLE] |  |  |  |  |  |  |  |  |  |  |  | 3.12 (≈ 12.9 µM) | 3.12 (≈ 12.9 µM) |  |  |  |  |  |  | 
GENTAMICIN SULFATE | 6.25 | 6.25 |  | 0.19 |  |  | 12.5 |  | 50 |  |  |  |  | 0.39 | 0.39 | 0.78 | 1.56 | 0.78 |  | 
Cc1ccc(CC(=O)Nc2ccc(-c3nc4ccccc4s3)cc2)cc1 | 50 (≈ 139 µM) | 25 (≈ 69.7 µM) | 50 (≈ 139 µM) | 50 (≈ 139 µM) | 25 (≈ 69.7 µM) | 25 (≈ 69.7 µM) | 50 (≈ 139 µM) | 50 (≈ 139 µM) | 25 (≈ 69.7 µM) | 25 (≈ 69.7 µM) | 50 (≈ 139 µM) |  |  |  |  |  |  |  |  | 
COc1ccc(CC(=O)Nc2ccc(-c3nc4ccccc4s3)cc2)cc1 | 50 (≈ 134 µM) | 12.5 (≈ 33.4 µM) | 12.5 (≈ 33.4 µM) | 50 (≈ 134 µM) | 12.5 (≈ 33.4 µM) | 12.5 (≈ 33.4 µM) | 25 (≈ 66.8 µM) | 12.5 (≈ 33.4 µM) | 6.25 (≈ 16.7 µM) | 25 (≈ 66.8 µM) | 50 (≈ 134 µM) |  |  |  |  |  |  |  | 3 | 3
O=C(Nc1ccc(-c2nc3ccccc3s2)cc1)c1ccc(Cl)cc1 | 25 (≈ 68.5 µM) | 12.5 (≈ 34.3 µM) | 50 (≈ 137 µM) | 50 (≈ 137 µM) | 50 (≈ 137 µM) | 25 (≈ 68.5 µM) | 50 (≈ 137 µM) | 50 (≈ 137 µM) | 25 (≈ 68.5 µM) | 25 (≈ 68.5 µM) | 50 (≈ 137 µM) |  |  |  |  |  |  |  |  | 
O=C(Nc1ccc(-c2nc3ccccc3s2)cc1)c1ccc([N+](=O)[O-])cc1 | 50 (≈ 133 µM) | 12.5 (≈ 33.3 µM) | 50 (≈ 133 µM) | 50 (≈ 133 µM) | 50 (≈ 133 µM) | 12.5 (≈ 33.3 µM) | 50 (≈ 133 µM) | 25 (≈ 66.6 µM) | 25 (≈ 66.6 µM) | 25 (≈ 66.6 µM) | 50 (≈ 133 µM) |  |  |  |  |  |  |  |  | 
O=C(Cc1ccc(Cl)cc1)Nc1ccc(-c2nc3ccccc3s2)cc1 | 50 (≈ 132 µM) | 50 (≈ 132 µM) | 50 (≈ 132 µM) | 50 (≈ 132 µM) | 50 (≈ 132 µM) | 25 (≈ 66 µM) | 50 (≈ 132 µM) | 50 (≈ 132 µM) | 25 (≈ 66 µM) | 25 (≈ 66 µM) | 50 (≈ 132 µM) |  |  |  |  |  |  |  |  | 
c1ccc2sc(CCC3CCCCC3)nc2c1 |  |  |  |  |  |  |  |  |  |  |  | 3.12 (≈ 12.7 µM) |  |  |  |  |  |  |  | 
CC1(C)S[C@@H]2[C@H](NC(=O)[C@H](N)c3ccccc3)C(=O)N2[C@H]1C(=O)O.O.O.O [AMPICILLIN TRIHYDRATE] |  |  | 0.78 | 0.78 |  |  | 400 | 3.12 |  |  | 0.78 |  |  |  |  |  |  |  |  | 
CC1COc2c(N3CCN(C)CC3)c(F)cc3c(=O)c(C(=O)O)cn1c23 (stereo not given) [OFLOXACIN] | 3.12 (≈ 8.65 µM) | 1.56 (≈ 4.32 µM) | 0.19 (≈ 0.526 µM) | 3.12 (≈ 8.65 µM) | 0.19 (≈ 0.526 µM) |  | 6.25 (≈ 17.3 µM) | 0.19 (≈ 0.526 µM) | 50 (≈ 138 µM) | 6.25 (≈ 17.3 µM) | 0.19 (≈ 0.526 µM) |  |  |  |  |  |  |  |  | 
c1ccc(SCc2nc3ccccc3s2)cc1 [2-(PHENYLTHIOMETHYL)BENZO[D]THIAZOLE] |  |  |  |  |  |  |  |  |  |  |  | 3.12 (≈ 12.1 µM) |  |  |  |  |  |  |  | 

Reference: ChEMBL document CHEMBL3045767, “Synthesis of novel 2-[4-(4-substitutedbenzamido/phenylacetamido)phenyl]benzothiazoles as antimicrobial agents” (2012)
